The subject of this data set is mouse liver microsomes, LC/MS/MS parent remaining, 60 min. Nature of the data set: metabolic stability in mouse liver microsomes, late-stage follow-up, ADME assay, biochemical, LC/MS/MS, with and without NADPH (AID 1940). As to conditions: at 1 µM, stronger effect = lower value.

The results in this text go back to PubChem BioAssay AID1940 (Sanford-Burnham Center for Chemical Genomics, 2009).

With `CC1Cc2cc(S(=O)(=O)N3CCN(c4ccc(Cl)cc4)CC3)ccc2N1C(=O)C1CC1` (configuration not stated), the percent remaining was 0.56%. The percent remaining (measured here: no NADPH control) is 61.2%.
